Results: patent publication US5049372A, “Anticancer activities in a host by increasing blood and plasma adenosine 5'-triphosphate (ATP) levels” (priority 1988, dated 1991)
Where two headings read alike, the source gives them in different places.

Experiments:
[1] = system: CT26 colon adenocarcinoma; assay: Growth inhibition of footpad CT26 colon adenocarcinoma in CB6F1 mice, second series (FIGS. 2 and 3); format: in vivo, mouse; settings: for Anticancer activities against established footpad CT26 colon adenocarcinoma: CB6F1 mice, in words; for Inhibition of growth of palpable CT26 tumors (in words): daily i.p. in 2.2 ml saline, pH 6.2, 12 days, starting after tumors palpable, equimolar amounts
Method: (§1) A further series of tests are conducted whereby tumors are inoculated by injections of 2.5×10^5 CT26 cells (over 90% viability) in 50 μl of phosphate-buffered saline into the right hind footpad of CB6F1 mice. The treatments were initiated at a variety of times after inoculation of the tumors. The injection schedules started either 1 or 5 days after tumor inoculation when none of the tumors are palpable or when the tumors are clearly palpable (average calculated weight of 100 mg), which occur in 100% of the inoculated mice after 8-11 days. Mice are randomized, divided into groups, and injected daily with 2.2 ml of saline, adenosine, AMP, or ATP (compounds are in sterile saline solutions at concentrations of 25 mM with AMP and ATP solutions adjusted to pH 6.2). Injections are administered intraperitoneally with 30 gauge needles and the mice are lightly anesthetized with […]. The mice are weighed and tumor sizes measured before the start of the treatment schedule and every three days during and after the treatment schedule. These determinations are performed before injections during the treatment period.
(§2) In particular, see FIG. 2. FIG. 2 illustrates inhibition of tumor growth (---) and host weight loss (-) in tumor-bearing mice by treatment with adenine nucleotides. Mice (CB6F1, 8 week old males) bearing palpable CT26 footpad tumors (on day 9 after tumor inoculation) are treated with saline (.smallcircle.), adenosine (o), AMP (Δ), or ATP (.quadrature.) as described herein. An untreated group is also included (x). Arrows indicate days of injection.
The magnitude of the antitumor activities of AMP and ATP depends to a small extent on the pH of the solution administered intraperitoneally. This property is probably related to the number of negative charges on the phosphate groups (the pKa of the secondary phosphate is around 6.6). AMP and especially ATP have some buffering capacity, and at a pH below 6.6 they carry a smaller net charge than at a physiological pH. The lower charge of these molecules enhances the initial (first hour) transport of AMP and ATP across the peritoneal membrane and into the systemic circulation (see Torres, et al., 1978, Pharmacol., 17, 330-340). […] The treatment schedule of palpable CT26 tumors which is illustrated in FIG. 2 consistently yields 10-20% of "cures". These mice remain tumor-free for at least two months.
FIG. 3 further illustrates inhibition of host weight loss in tumor-bearing animals by treatment with adenine nucleotides. Mice (CB6F1, males, 7 weeks old, in A, 10 weeks old in B, […]) with saline (.smallcircle.), adenosine (o), AMP (Δ), or ATP (.quadrature.) are initiated 1 day (A), 5 days (B), or 9 days after tumor inoculation (when all the tumors were palpable) (C). Arrows indicate days of injection. Experimental procedures were outlined in the text.

CT26 tumors = assay: Growth inhibition of s.c. footpad CT26 tumors in CB6F1 mice by daily i.p. adenine nucleotides (Table 1); format: in vivo, mouse; settings: for inhibition at 25000 µM: Mus musculus, CT26, 360 h, 1 ml of 25 mM, based on tumor weights
Method: The tumor cell lines employed were CT26, a mouse undifferentiated, aggressive colon carcinoma, and CAPAN-1, a well-differentiated human pancreatic adenocarcinoma. […] The cells are shown to be free of Mycoplasma contamination. Cells are cultured at 37° C. in a humidified atmosphere of 5% CO2 /95% air in MEM supplemented with antibiotics (100 units of penicillin per ml and 100 μg streptomycin per ml), L-glutamine (2 mM), non-essential amino acids (0.1 mM), sodium pyruvate (1 mM), and 10% fetal bovine serum.
In the tests, females and males CB6F1 mice (a standard F1 hybrid of BALB/C and C57BL/6) obtained from Jackson Laboratories, Bar Harbor, Maine and athymic outbred NCr nu/nu mice (males and females) from the Department of Radiation Medicine, Massachusetts General Hospital, Boston, Mass. 02114 are used. All the mice are kept for at least two weeks before inoculation of the tumors and the start of treatment and are 7-9 weeks old (CB6F1) or 6-7 weeks old (athymic nu/nu) at the start of the procedure. Animals weigh 20-25 g (females) or 23-28 g (males), are housed 5-12 per cage, and have ad libitum access to food and water.
Tumor cells are removed from subconfluent cultures by a mild trypsin-EDTA treatment, the cell pellet is washed once with MEM without serum and the cells are suspended at the desired cell numbers in PBS (phosphate-bufferedsaline, 8 g NaCl, 0.2 g KCl, 1.15 g Na2 HPO4.7H2 O, and 0.2 g KH2 PO4 per liter). Cell suspensions are shown to be at least 90% viable by trypan blue exclusion. Mice are injected subcutaneously in the right hind footpad with tumor cells suspended in 50 μl of PBS. The regular protocol (unless otherwise stated) consists of daily i.p. injections of 1 ml of 0.85% NaCl solution or 1 ml of 50 mM of AMP, ADP, or ATP in 0.85% NaCl (from stock solutions adjusted to pH 6.2) starting one day after tumor inoculation and given for ten consecutive days.
Injections are administered with 30 gauge needles and the mice are lightly anesthetized with ether. The mice are weighed before the start of treatment and once a week during and after treatment. After the tumors become palpable, tumor sizes are determined every three days. The animals are sacrificed, tumors are excised and weighed before they reach 10% of the animals' weight.
The growth inhibitory properties of adenine nucleotides against CT26 murine colon carcinoma, which are inoculated s.c. in the hind footpad of CB6F1 mice, are illustrated in Table 1 hereinbelow. […] No significant differences between males and females are observed either in the rate of tumor growth or in the tumor's response to adenine nucleotides treatment.

RBC ATP pools [2] = assay: Stability of expanded RBC ATP pools in washed isolated RBCs in vitro after i.p. injection (Table 5); design: species or system mouse; settings: average of two experiments
Method: (§3) The mice are anesthetized with ether during the procedure. Plasma or Hanks' (Balanced Salt Solution) BSS media from incubated isolated RBCs (Red Blood Cells) are prepared by centrifugation of whole blood or RBCs in a Beckman microfuge (30 seconds at 8000 xg) and samples of 100 μl are added to 1 ml of ice-cold 7% trichloroacetic acid. Red blood cells are prepared by centrifugation of whole blood (1500 xg for 5 minutes at 4° C.) and removal of plasma and the buffy coat is followed by a wash of the pelleted RBCs (from 250 μl of whole blood) in 5 ml of ice-cold Hanks' BSS. After centrifugations, the RBCs pellet is resuspended in Hanks' BSS to yield a total volume with the original hematocrit (percent of RBCs volume in the whole blood). Aliquots of 20 μl of RBCs suspensions or whole blood are added to 1 ml of ice-cold 7% trichloroacetic acid. Extraction of acid-soluble nucleotides and determinations of ATP levels by luminometry followed procedures discussed hereinabove. Levels of [^3 H]ATP in whole blood, RBCs, plasma, or RBCs incubation media (Hanks' BSS) are determined after incorporation of 250 μCi of [^3 H]adenosine of specific radioactivity of 30 Ci/mmol (1 Ci=3.7×10^10 becquerels) into whole blood or RBC suspensions (250 μl total) followed by immediate trichloroacetic acid extractions as described above. Two dimensional thin layer chromatography on poly(ethylene)imine cellulose with an unlabeled ATP carrier is performed according to Bochner and Ames, J. Biol. Chem., 257, pp. 9759-9769, 1982). For the determination of whole blood or isolated RBC [^3 H]ATP pools, 10 μl of a 1 ml initial trichloroacetic acid extract are chromatographed. Determinations of [^3 H]ATP levels in blood plasma or RBCs incubation media are performed on 300 μl of an initial 1 ml trichloroacetic acid extract which are lyophilized and redissolved in 15 μl of water. After chromatography, the spots corresponding to the ATP carrier are cut, eluted with 0.5 ml of 4 N ammonium hydroxide, and radioactivity determined in 10 ml of scintillation fluid.
Two hour incubations of washed isolated RBCs containing normal or expanded ATP pools in Hanks' BSS result in relatively small decreases in RBC ATP pools with the expanded pools being maintained well above normal levels (Table 5). The expansions of RBC ATP pools after i.p. administration of AMP or ATP in vivo is presumably the result of their dephosphorylation followed by the RBCs uptake of the adenosine which is generated in situ.

RBC ATP pools [3] = assay: RBC ATP pools after in vitro incubation of whole mouse blood with 1 mM compound (Table 6); format: cell-based; settings: 1 mM compound, 30 min, bioluminometry
Method: ^+ RBC ATP pools were determined in isolated washed RBCs after
incubations of whole blood with 1 mM of the specified compound by
bioluminometry. Data represent means ± S.D. of three separate

RBC ATP pools [4] = assay: Expansion of RBC ATP pools and blood plasma ATP levels after i.p. injection (Table 4); format: in vivo, mouse
Method: as §3
Single intraperitoneal injections of 2 ml of 35 mM of AMP or ATP in saline at pH 6.2 into CB6F1 mice result in expansions of RBC ATP pools in these mice (see Table 4).
The expansions of RBC ATP pools after i.p. injections of AMP or ATP could be detected 30 minutes after injections and lasted for approximately 6-8 hours after the nucleotides were completely adsorbed across the peritoneal membrane and into the systemic circulation. The rates of adsorption of intraperitoneal AMP or ATP solutions varied in different strains of mice. […] These plasma ATP levels originate in RBCs since they can be metabolically labeled by [^3 H]adenosine. Plasma ATP pools which originate in the dense granules of blood platelets would not be radioactively labeled under the same conditions (e.g., Holmsen, 1985, Seminars in Hematol, 22, 219-240). The experiments described in Tables 4 and 5 include uptake of [^3 H]adenosine by whole blood (Table 4) or isolated washed RBCs (Table 5 below). In both cases, all the extracellular ATP, determined seconds after the uptake of [^3 H]adenosine, is metabolically labeled.

[5] = Inhibition of host weight loss (cancer cachexia) in CT26 tumor-bearing mice; format: in vivo, mouse
Method: as §1, §2
FIG. 3 further illustrates inhibition of host weight loss in tumor-bearing animals by treatment with adenine nucleotides. Mice (CB6F1, males, 7 weeks old, in A, 10 weeks old in B, C) are inoculated with CT26 tumors and daily treatments (for 10 consecutive days) with saline (.smallcircle.), adenosine (o), AMP (Δ), or ATP (.quadrature.) are initiated 1 day (A), 5 days (B), or 9 days after tumor inoculation (when all the tumors were palpable) (C). Arrows indicate days of injection. Experimental procedures were outlined in the text.

[6] = experiment 1, 10 F per group, 0.5 × 10^6 cells, day 15, 1 ml of 25 mM i.p. daily
[7] = experiment 2, 10 M per group, 0.5 × 10^6 cells, day 15, 1 ml of 25 mM i.p. daily
[8] = 5 hours after i.p. injection of 2 ml of 35 mM, CB6F1, bioluminometry, citrate-dextrose
[9] = experiment 6, 10 F per group, 0.5 × 10^5 cells, day 18, 1 ml of 50 mM i.p. daily (Ap4A 10 mM)

O=P(O)(O)O [inorganic phosphate, reference compound]
Anticancer activities against established footpad CT26 colon adenocarcinoma [1]: without such effects
Inhibition of growth of palpable CT26 tumors (in words) [1]: without any effects on the growth of CT26 tumors

Nc1ncnc2c1ncn2[C@@H]1O[C@H](COP(=O)(O)OP(=O)(O)OP(=O)(O)O)[C@@H](O)[C@H]1O [ATP-MgCl2]
inhibition at 25000 µM (CT26 tumors; read-out: Inhibition of tumor growth (% of saline-treated), experiment 1, 10 F per group, 0.5 × 10^6 cells, day 15): 18%
inhibition at 25000 µM (CT26 tumors; read-out: Inhibition of tumor growth (% of saline-treated), experiment 2, 10 M per group, 0.5 × 10^6 cells, day 15): 26%
Tumor diameter (CT26 tumors; [6]): 1.4 ± 0.2 cm
Tumor weight (CT26 tumors; [6]): 1.59 ± 0.24 g
Tumor diameter (CT26 tumors; [7]): 1.4 ± 0.3 cm
Tumor weight (CT26 tumors; [7]): 1.38 ± 0.40 g

O=P(O)(O)OP(=O)(O)O [inorganic pyrophosphate, reference compound]
Anticancer activities against established footpad CT26 colon adenocarcinoma [1]: without such effects
Inhibition of growth of palpable CT26 tumors (in words) [1]: without any effects on the growth of CT26 tumors

Nc1ncnc2c1ncn2[C@@H]1O[C@H](CO)[C@@H](O)[C@H]1O [Adenosine, adenosine]
Anticancer activities against established footpad CT26 colon adenocarcinoma [1]: without such effects
Deaths before stated day after tumor inoculation ([1]; FIG. 2 experiment, palpable CT26 tumors, 10 animals per group): No deaths occurred before day 22
Inhibition of growth of palpable CT26 tumors (in words) [1]: Much weaker anticancer activities
Medium (Hanks' BSS) [^3 H]ATP levels immediately after [^3 H]adenosine incorporation into isolated, washed RBCs (at time 0) (RBC ATP pools [2]; time 0): 1.20 µM
ATP levels in the medium (Hanks' BSS) (RBC ATP pools [2]; time 0, bioluminometry): 1.71 µM
RBC ATP pools (37° C.), 0 min (RBC ATP pools [2]; washed RBCs in Hanks' BSS, 37° C., 0 min): 0.69 mM
RBC ATP pools (37° C.), 120 min (RBC ATP pools [2]; washed RBCs in Hanks' BSS, 37° C., 120 min): 0.54 mM
RBC ATP pools (after 30 min incubations in heparinized mouse blood) (RBC ATP pools [3]): 0.55 ± 0.17 µM
Plasma ATP levels (RBC ATP pools [4]; [8]): 1.12 ± 0.28 µM
RBC ATP pools (RBC ATP pools [4]; [8]): 1.10 ± 0.24 mM
Plasma [^3 ]ATP levels immediately after [^3 H]adenosine incorporation into whole blood (RBC ATP pools [4]; 5 hours after i.p. injection of 2 ml of 35 mM, CB6F1, radioactivity corrected by RBC specific radioactivity): 0.77 ± 0.30 µM
Expansion of RBC ATP pools (in words) (RBC ATP pools [4]; i.p. injection, host animals): only slightly effective in expanding mouse RBC ATP pools
Deaths before stated day after tumor inoculation ([5]; FIG. 3, treatment initiated day 1 (A), day 5 (B) or day 9 (C)): No deaths occurred before day 19 (A) or day 25 (B,C)
Effect on tumor growth and rate of weight loss, schedules ending before tumors become large ([5]; FIGS. 3A and 3B, treatment from day 1 or day 5): having only a small effect on either of the two phenomena
Inhibition of host weight loss (in words) ([5]; tumors of similar sizes, FIG. 2 data): inhibit weight loss

Nc1ncnc2c1ncn2[C@@H]1O[C@H](COP(=O)(O)OP(=O)(O)OP(=O)(O)OP(=O)(O)OC[C@H]2O[C@@H](n3cnc4c(N)ncnc43)[C@H](O)[C@@H]2O)[C@@H](O)[C@H]1O [AP4 A, reference compound]
Tumor diameter (CT26 tumors; [9]): 0.9 ± 0.3 cm
Tumor weight (CT26 tumors; [9]): 0.74 ± 0.21 g
